Source: paper PMC2999882 (Molecular pharmacology, 2008)
Values joined by “and” are separate entries in the source; they are usually repeats but may differ in a detail not shown here. Identical values can stand only once. Like-named read-outs stand apart in the source and are kept apart here.

How the values were obtained:
α3β4 nAChR = α3β4 nAChR (Homo sapiens, UniProt P30926+P32297)
5HT3 receptors [1] = biological target: T1, 5HT3 receptors (Homo sapiens, UniProt P46098); type: cell-based; conditions: 100 µM coapplied with 10 µM serotonin
T1 sequence (P46098 24-478): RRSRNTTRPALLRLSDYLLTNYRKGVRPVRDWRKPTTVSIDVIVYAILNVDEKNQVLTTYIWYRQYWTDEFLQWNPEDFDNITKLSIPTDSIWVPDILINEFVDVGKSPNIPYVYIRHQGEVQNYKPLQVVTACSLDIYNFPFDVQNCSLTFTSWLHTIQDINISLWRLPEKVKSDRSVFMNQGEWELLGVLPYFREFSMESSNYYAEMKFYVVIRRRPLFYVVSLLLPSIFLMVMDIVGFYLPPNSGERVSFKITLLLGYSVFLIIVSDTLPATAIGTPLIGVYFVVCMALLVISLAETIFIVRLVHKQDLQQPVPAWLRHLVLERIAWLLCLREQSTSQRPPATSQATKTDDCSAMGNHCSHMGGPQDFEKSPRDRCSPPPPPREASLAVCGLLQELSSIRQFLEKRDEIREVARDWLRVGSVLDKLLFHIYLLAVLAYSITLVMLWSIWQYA

[2] = biological target: T2, muscle type (α1β1εδ) nAChR (Homo sapiens, UniProt P02708+Q04844+Q07001); type: cell-based; conditions: 100 µM; normalized to ACh maximum; detection threshold 0.5%
T2 sequence (P02708 21-457): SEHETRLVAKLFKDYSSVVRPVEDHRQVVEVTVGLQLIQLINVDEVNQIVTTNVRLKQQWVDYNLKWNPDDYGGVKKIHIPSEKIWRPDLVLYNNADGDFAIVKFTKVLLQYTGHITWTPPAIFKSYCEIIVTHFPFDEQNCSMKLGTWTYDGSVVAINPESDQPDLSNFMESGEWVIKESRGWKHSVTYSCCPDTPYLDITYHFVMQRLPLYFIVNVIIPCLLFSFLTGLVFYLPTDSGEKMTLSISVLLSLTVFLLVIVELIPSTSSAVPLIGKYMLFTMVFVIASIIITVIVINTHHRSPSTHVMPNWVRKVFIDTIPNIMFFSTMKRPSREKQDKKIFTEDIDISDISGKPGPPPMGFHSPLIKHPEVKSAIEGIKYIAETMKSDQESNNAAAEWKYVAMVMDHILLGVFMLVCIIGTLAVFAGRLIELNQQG
T2 sequence (P11230 24-501 partner): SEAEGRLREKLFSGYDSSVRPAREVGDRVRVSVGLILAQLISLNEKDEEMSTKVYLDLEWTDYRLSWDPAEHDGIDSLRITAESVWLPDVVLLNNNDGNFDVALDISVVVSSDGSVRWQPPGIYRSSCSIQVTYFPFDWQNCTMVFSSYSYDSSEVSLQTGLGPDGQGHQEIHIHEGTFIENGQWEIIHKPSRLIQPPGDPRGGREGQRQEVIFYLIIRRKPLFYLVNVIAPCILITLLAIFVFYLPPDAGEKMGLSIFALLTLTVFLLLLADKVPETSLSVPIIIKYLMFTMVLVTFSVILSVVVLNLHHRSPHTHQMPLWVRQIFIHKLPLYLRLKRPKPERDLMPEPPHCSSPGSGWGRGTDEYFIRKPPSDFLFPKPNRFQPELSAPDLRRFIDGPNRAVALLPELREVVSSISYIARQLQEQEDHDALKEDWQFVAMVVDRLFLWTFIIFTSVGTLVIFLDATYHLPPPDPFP
T2 sequence (Q04844 21-493): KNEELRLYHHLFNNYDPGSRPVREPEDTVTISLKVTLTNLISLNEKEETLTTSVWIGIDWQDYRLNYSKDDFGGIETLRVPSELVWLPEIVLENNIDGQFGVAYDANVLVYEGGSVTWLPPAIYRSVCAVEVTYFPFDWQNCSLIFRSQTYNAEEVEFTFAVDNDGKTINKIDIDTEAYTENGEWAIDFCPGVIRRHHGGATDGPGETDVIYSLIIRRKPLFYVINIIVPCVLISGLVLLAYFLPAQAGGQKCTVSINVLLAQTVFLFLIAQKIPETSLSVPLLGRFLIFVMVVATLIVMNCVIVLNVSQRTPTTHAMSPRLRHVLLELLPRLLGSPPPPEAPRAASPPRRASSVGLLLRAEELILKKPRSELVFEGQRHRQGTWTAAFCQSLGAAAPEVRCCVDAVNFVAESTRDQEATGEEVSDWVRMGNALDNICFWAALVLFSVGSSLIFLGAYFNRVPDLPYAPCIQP
T2 sequence (Q07001 22-517): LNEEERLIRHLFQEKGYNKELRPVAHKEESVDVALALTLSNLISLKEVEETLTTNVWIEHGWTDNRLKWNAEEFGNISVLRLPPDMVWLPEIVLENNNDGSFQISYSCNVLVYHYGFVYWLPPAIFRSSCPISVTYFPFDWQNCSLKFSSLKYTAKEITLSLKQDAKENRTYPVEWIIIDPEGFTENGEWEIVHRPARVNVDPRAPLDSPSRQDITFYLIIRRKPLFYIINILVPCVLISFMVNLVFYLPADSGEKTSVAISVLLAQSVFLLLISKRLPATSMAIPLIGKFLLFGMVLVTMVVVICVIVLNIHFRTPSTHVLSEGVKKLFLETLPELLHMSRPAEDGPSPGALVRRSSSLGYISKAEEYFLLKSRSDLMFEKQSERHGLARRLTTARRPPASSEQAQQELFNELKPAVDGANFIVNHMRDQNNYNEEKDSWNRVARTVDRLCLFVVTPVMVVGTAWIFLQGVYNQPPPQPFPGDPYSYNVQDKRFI

[3] = biological target: T2, muscle type (α1β1εδ) nAChR; type: cell-based; conditions: 100 µM coapplied with 3 µM ACh
α4β2 nAChR [4] = biological target: T3, α4β2 nAChR (Homo sapiens, UniProt P17787+P43681); assay: cell-based; type: cell-based
T3 sequence (P43681 29-627 limits assumed): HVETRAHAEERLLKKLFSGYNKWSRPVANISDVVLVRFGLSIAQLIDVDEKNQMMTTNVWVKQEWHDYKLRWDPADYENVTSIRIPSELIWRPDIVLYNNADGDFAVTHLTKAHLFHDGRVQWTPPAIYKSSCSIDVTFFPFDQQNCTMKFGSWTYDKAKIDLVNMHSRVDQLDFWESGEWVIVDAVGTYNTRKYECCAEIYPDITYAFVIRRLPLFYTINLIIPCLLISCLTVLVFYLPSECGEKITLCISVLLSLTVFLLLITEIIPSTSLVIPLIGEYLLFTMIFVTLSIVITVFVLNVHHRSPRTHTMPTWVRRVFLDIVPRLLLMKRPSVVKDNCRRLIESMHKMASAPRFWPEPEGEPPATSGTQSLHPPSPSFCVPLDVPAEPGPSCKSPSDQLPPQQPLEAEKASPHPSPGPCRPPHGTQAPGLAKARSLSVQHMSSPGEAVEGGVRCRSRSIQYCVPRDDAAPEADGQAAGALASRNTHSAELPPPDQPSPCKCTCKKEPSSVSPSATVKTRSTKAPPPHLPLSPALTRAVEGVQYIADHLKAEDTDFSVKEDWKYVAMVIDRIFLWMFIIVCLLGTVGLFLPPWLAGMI
T3 sequence (P17787 26-502): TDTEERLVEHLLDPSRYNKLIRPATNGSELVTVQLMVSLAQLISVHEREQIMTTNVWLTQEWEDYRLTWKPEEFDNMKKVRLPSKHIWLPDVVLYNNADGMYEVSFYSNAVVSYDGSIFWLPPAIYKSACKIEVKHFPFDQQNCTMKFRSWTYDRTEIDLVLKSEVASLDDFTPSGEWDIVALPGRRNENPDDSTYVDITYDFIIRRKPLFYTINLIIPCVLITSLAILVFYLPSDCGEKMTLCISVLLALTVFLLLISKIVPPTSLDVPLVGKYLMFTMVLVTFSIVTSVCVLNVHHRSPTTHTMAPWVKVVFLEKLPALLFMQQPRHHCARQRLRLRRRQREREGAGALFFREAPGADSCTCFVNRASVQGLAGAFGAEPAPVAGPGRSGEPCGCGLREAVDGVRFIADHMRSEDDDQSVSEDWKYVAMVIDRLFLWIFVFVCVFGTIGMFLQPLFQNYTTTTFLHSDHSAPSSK

5HT3 receptors [5] = biological target: T1, 5HT3 receptors; type: cell-based; conditions: 100 µM; normalized to maximal serotonin response; detection threshold 5%
α4β2 nAChR [6] = biological target: T3, α4β2 nAChR; type: cell-based; conditions: 100 µM coapplied with 30 µM ACh
α9 nAChR = conditions: ref Papke et al., 1996; Verbitsky et al., 2000; cited from earlier work
α7 nAChR [7] = biological target: α7 nAChR (Homo sapiens, UniProt P36544)
Sequence of α7 nAChR (Homo sapiens, UniProt P36544) (P36544 23-502): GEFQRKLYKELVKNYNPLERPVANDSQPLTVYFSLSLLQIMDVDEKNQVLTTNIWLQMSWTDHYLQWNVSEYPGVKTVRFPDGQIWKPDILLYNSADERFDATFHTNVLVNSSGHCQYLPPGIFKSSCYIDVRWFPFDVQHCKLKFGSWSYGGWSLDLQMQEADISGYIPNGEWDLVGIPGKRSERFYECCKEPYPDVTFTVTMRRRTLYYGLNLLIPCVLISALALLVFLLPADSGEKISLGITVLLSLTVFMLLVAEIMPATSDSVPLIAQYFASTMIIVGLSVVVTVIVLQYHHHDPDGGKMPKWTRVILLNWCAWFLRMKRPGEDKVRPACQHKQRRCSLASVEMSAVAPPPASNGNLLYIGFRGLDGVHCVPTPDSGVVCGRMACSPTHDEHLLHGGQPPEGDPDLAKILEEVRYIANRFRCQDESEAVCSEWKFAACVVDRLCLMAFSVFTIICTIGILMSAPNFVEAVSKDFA

α7 nAChR [8] = conditions: cited from earlier work
other nAChR tested = conditions: cited from earlier work
5HT3 receptors [9] = biological target: T1, 5HT3 receptors; conditions: cited from earlier work
rat α7 nAChR = conditions: X. laevis oocytes; ref Papke et al., 2005b; cited from earlier work
[10] = biological target: rat brain membrane α7 sites; conditions: cited from earlier work
human α7 = conditions: cited from earlier work
5HT3 receptors [11] = biological target: T1, 5HT3 receptors; conditions: cited from earlier work; remark: listed apart in the source

Sequence of α3β4 nAChR (P32297 32-505): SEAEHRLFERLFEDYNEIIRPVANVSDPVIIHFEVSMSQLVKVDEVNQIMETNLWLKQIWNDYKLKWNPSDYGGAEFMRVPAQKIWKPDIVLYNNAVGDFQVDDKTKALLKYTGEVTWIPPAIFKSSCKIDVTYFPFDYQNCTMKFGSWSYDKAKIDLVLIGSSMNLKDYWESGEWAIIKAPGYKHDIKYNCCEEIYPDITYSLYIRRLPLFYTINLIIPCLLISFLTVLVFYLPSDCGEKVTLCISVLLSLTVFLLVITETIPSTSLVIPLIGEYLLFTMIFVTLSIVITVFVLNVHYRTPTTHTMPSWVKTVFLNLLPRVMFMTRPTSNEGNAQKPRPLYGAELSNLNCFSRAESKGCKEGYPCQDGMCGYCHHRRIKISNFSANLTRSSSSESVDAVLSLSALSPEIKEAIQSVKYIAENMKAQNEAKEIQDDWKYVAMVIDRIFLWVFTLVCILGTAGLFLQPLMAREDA
Sequence of α3β4 nAChR (P30926 22-498): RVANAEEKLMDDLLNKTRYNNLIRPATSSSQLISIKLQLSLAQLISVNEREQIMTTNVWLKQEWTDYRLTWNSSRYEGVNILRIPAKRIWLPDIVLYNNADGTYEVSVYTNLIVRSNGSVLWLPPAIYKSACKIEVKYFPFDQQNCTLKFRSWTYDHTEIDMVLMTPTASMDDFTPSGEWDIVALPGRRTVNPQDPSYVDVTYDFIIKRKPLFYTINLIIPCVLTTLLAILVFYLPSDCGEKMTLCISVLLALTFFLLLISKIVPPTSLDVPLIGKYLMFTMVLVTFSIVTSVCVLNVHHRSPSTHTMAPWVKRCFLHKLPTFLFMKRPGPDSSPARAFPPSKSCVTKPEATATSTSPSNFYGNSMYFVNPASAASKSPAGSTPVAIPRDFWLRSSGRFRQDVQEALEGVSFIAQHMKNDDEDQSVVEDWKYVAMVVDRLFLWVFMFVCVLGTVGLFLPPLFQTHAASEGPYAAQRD

## C[N+](C)(C)CCO [Choline, choline, reference compound]
α3β4 nAChR
  agonist character at α3β4: too low to be characterized in regard to potency
α3β4 nAChR; peak current, relative to ACh maximum (ACh constrained to 1)
  α3β4 Imax: 0.04 ± 0.01
5HT3 receptors [1]
  5HT3 Inhibition: N.S.
[2]
  α1β1εδ Activity: N
[3]
  α1β1εδ Inhibition: N.S.
α4β2 nAChR [4]; 100 µM, normalized to ACh maximum, detection threshold 1%
  α4β2 Activity: ≈1%
α4β2 nAChR [4]; 3 mM agonist
  α4β2 response, % of the ACh maximum: 2.3 ± 0.3% and 2%
5HT3 receptors [5]
  5HT3 Activity: N
α4β2 nAChR [6]
  α4β2 Inhibition: N.S.
α9 nAChR
  activity at α9 nAChR (Summary): agonist
α7 nAChR [7]
  EC50: 243 ± 8 µM
  α7 Imax: 0.90 ± 0.1
  α7 potency, fold less potent than ACh: approximately 10 fold
  α7 potency, fold lower than related agonists that lack the oxygen group (e.g., ETMA and QN): at least 10 fold
α7 nAChR [8]
  potency for α7, fold lower than that of ACh: 10 fold
Other nAChR tested; ref Papke et al., 1996, Verbitsky et al., 2000
  activity at heteromeric nAChR (Summary): little or no activity

## C[C@H](OC(=O)N[C@@H]1CN2CCC1CC2)c1ccccc1F [JN403]
5HT3 receptors [9]; read-out: IC50 5HT3 receptors (antagonist)
  IC50: ~20 µM
α7 nAChR [8]
  α7 efficacy, % of that of ACh: In the X. laevis oocyte experiments, JN403 was a relatively potent partial agonist, with an efficacy of approximately 50% of that of ACh. 5HT3 receptors and other nAChRs were evaluated with calcium flux measurements in transfected cells, and JN403 was antagonist in these experiments.
Other nAChR tested
  activity at 5HT3 receptors and other nAChRs (Summary): In the X. laevis oocyte experiments, JN403 was a relatively potent partial agonist, with an efficacy of approximately 50% of that of ACh. 5HT3 receptors and other nAChRs were evaluated with calcium flux measurements in transfected cells, and JN403 was antagonist in these experiments.

## cis-1-methyl-2,3,3a,4,5,9b,-hexahydro-1H-pyrrolo[2,3-f]quinoline [ACME]
Rat α7 nAChR
  Imax, % of that of ACh, rat α7 nAChR: The rigid nicotine analogs ACME and ACME-B were partial agonists for rat α7 nAChR (Imax, 10 and 20% of that of ACh, respectively). ACME-B was 2-fold more potent (EC50 ≈ 26 µM) than the boron-free form ACME. Potential antagonist activity of non-α7 nAChR not investigated.

## O=C(N[C@H]1CN2CCC1CC2)c1ccc(Cl)cc1 [PNU-282987]
5HT3 receptors [9]; read-out: IC50 5HT3 receptors (functional antagonist)
  IC50: ~5 µM
[10]; read-out: Ki, displacement of MLA binding from rat brain homogenates
  Ki: 0.027 µM

## c1cncc(C2CCC3CCN2CC3)c1 (stereo not shown) [TC-1698, 2-(3-pyridyl)-1-azabicyclo[3.2.2]nonane]
α7 nAChR [8]
  agonist character at α7 (Summary): A potent full agonist for α7 nAChR with negligible activation of the heteromeric neuronal nAChR tested but with low-potency partial agonist activity for muscle nAChR. Effective competitive antagonist at α4β2 nAChR.
Other nAChR tested
  activation of the heteromeric neuronal nAChR tested (Summary): A potent full agonist for α7 nAChR with negligible activation of the heteromeric neuronal nAChR tested but with low-potency partial agonist activity for muscle nAChR. Effective competitive antagonist at α4β2 nAChR.
  activity at α4β2 nAChR (Summary): A potent full agonist for α7 nAChR with negligible activation of the heteromeric neuronal nAChR tested but with low-potency partial agonist activity for muscle nAChR. Effective competitive antagonist at α4β2 nAChR.
  activity for muscle nAChR (Summary): A potent full agonist for α7 nAChR with negligible activation of the heteromeric neuronal nAChR tested but with low-potency partial agonist activity for muscle nAChR. Effective competitive antagonist at α4β2 nAChR.

## COc1ccccc1-c1cccc2cc(C(=O)N[C@H]3CN4CCC3CC4)oc12 [ABBF, N-[(3R)-1-azabicyclo[2.2.2]oct-3-yl]-7-[2-(methoxy)phenyl]-1-benzofuran-2-carboxamide]
Human α7
  agonist character at human α7 (Summary): Putative full agonist for human α7 (EC50 ≈ 3 µM) and an antagonist for other nAChR tested (IC50 values of 1–8 µM). Mechanism of antagonism not investigated. Bound to 5HT3 receptors with high affinity (60 nM), comparable with rat brain membrane α7 sites (62 nM).
Human α7; read-out: EC50 human α7
  EC50: ~3 µM
5HT3 receptors [11]
  affinity for 5HT3 receptors: Putative full agonist for human α7 (EC50 ≈ 3 µM) and an antagonist for other nAChR tested (IC50 values of 1–8 µM). Mechanism of antagonism not investigated. Bound to 5HT3 receptors with high affinity (60 nM), comparable with rat brain membrane α7 sites (62 nM).
5HT3 receptors [9]
  Effects on 5HT3 Receptors: Antagonist
[10]
  affinity for rat brain membrane α7 sites: Putative full agonist for human α7 (EC50 ≈ 3 µM) and an antagonist for other nAChR tested (IC50 values of 1–8 µM). Mechanism of antagonism not investigated. Bound to 5HT3 receptors with high affinity (60 nM), comparable with rat brain membrane α7 sites (62 nM).
